Data on 29 compounds can be found in publication PMC5241706, “Biochemical and Structural Characterization of Selective Allosteric Inhibitors of the Plasmodium falciparum Drug Target, Prolyl-tRNA-synthetase” (ACS Infectious Diseases, 2016).

The subject of experiment [1] is Plasmodium falciparum strain 3D7. Nature of the experiment: Plasmodium falciparum growth inhibition, SYBR green fluorescence. It is filed as cell-based.
Experiment [2] deals with T1, PfProRS (Plasmodium falciparum, UniProt Q8I5R7).
T1 construct: B2, AA7–746 (minus 6 amino acids, or 99% of the ORF); made in house; host or cells: E. coli BL21(DE3)R3 Rosetta Oxford
T1 sequence (Q8I5R7 7-746): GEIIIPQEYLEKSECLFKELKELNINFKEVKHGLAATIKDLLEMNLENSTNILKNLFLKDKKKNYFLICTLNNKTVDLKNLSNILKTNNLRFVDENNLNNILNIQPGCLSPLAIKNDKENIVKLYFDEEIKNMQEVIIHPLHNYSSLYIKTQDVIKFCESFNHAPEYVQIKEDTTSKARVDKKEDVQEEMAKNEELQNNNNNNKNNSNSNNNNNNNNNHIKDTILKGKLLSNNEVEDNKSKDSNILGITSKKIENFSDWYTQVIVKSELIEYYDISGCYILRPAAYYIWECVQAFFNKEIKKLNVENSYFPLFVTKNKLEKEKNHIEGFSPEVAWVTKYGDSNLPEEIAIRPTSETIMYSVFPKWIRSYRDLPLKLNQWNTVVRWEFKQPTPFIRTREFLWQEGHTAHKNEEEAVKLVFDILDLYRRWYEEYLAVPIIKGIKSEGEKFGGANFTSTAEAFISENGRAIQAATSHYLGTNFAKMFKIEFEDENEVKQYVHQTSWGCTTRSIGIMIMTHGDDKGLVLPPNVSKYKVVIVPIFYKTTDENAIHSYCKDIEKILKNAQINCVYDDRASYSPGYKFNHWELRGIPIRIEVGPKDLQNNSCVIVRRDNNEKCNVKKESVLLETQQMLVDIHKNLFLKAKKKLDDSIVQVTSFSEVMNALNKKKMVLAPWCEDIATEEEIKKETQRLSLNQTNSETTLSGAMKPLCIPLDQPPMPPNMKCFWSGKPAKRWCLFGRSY
As to the kind of experiment: biochemical. In kind it is biochemical. As to conditions: for IC50: read-out: Pf ProRS IC50; for PfProRS activity in words: SAR text to Table 1.

Experiment [3] has as its target T1, PfProRS. As to the kind of experiment: ATP consumption assay with proline or ATP varied (competition). It is filed as biochemical. The settings on record: from IC50 vs [ATP] fit.
The target of experiment [4] is T1, PfProRS. As to the kind of experiment: luciferase ATP depletion assay, HTS format. In kind it is biochemical. The settings on record: read-out: Percentage inhibition Pf ProRS.
The target of experiment [5] is T2, HsProRS (Homo sapiens, UniProt P07814).
T2 construct: made in house
T2 sequence (P07814 1007-1512 limits assumed): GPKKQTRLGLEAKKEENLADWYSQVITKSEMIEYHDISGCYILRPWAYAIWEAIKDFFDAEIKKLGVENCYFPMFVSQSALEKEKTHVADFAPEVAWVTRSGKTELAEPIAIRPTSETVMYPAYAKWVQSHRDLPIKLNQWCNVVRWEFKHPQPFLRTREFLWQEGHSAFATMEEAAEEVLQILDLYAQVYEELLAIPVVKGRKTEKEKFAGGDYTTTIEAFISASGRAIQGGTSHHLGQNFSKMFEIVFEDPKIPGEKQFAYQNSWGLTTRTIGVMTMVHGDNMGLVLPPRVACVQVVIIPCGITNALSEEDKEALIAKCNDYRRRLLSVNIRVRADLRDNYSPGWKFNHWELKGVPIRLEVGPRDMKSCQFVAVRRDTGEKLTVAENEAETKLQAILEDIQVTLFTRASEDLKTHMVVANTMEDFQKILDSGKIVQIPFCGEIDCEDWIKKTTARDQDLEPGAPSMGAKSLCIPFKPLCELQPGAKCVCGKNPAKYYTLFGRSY
Nature of the experiment: luciferase ATP depletion assay, counter-screen. It is filed as biochemical. As to conditions: read-out: Percentage inhibition Hs ProRS. For orientation: A counterscreen serves to expose hits that act by an unwanted route or on another target.

Experiment [6] relates to isolated 3D7 trophozoites (pHi). Nature of the experiment: pH assay, BCECF-loaded isolated trophozoites. The settings on record: TCMDC-124506 5 μM; KAE609 50 nM.
In experiment [7] the target is T1, PfProRS. As to the kind of experiment: aminoacylation assay ([3H]-L-proline incorporation into tRNA). It is filed as biochemical.
The mark [8] stands for this setting: 3D7, growth inhibition, read-out: Pf (3D7) EC50.

The structures appear in SMILES notation. Like-named read-outs stand apart in the source and are kept apart here.

Regarding `Cn1nc(C(F)(F)F)c(-c2ccc(F)cc2)c1NC(=O)Nc1cccc(F)c1` [Compound 4], the EC50 in experiment [1] (setting [8]) was 0.35 µM. For the same compound, the IC50 in experiment [2] came to 8 µM.
For `Cn1nc(C(F)(F)F)c(-c2ccccc2CO)c1NC(=O)Nc1ccc(F)cc1` [Compound 13], the EC50 in experiment [1] (setting [8]) was found to be 8 µM. In addition, in experiment [2], the “drop in PfProRS potency versus hit compound” value turned out to be 4 fold and the IC50 is 20 µM.
For `NC(=O)Cn1nc(C(F)(F)F)c(-c2ccc(F)cc2)c1NC(=O)Nc1ccc(F)cc1` [Compound 9], in experiment [1] (setting [8]), the EC50 is over 50 µM. For the same compound, the IC50 in experiment [2] was over 50 µM.
Take `CN(C)CCc1nn(C)c(NC(=O)Nc2ccc(F)cc2)c1-c1ccc(F)cc1` [Compound 25]: in experiment [1] (setting [8]), the EC50 was over 50 µM. In addition, the IC50 in experiment [2] was 4 µM.
On to `Cn1nc(C(F)(F)F)c(-c2ccc(F)cc2)c1NC(=O)Nc1ccc(F)cc1F` [Compound 3], for which the EC50 in experiment [1] (setting [8]) is 0.7 µM. In addition, the IC50 in experiment [2] was 2.5 µM.
Take `Nc1ncnc2c1ncn2[C@@H]1O[C@H](COP(=O)(O)OP(=O)(O)OP(=O)(O)O)[C@@H](O)[C@H]1O` [ATP]: in experiment [3], the Km turned out to be 6.51 ± 1.84 µM.
For the compound `O=C(Nc1ccc(F)cc1)Nc1[nH]nc(C(F)(F)F)c1-c1ccc(F)cc1` [Compound 7], the EC50 in experiment [1] (setting [8]) is over 50 µM. For the same compound, in experiment [2], the “PfProRS activity in words” value was “inactive” and the IC50 was over 50 µM.
For the compound `Cn1nc(C#N)c(-c2ccc(F)cc2)c1NC(=O)Nc1ccc(F)cc1` [Compound 22], in experiment [1] (setting [8]), the EC50 was determined as 0.6 µM. In experiment [2], the IC50 stood at 5 µM.
Consider `Cn1nc(CCO)c(-c2ccc(F)cc2)c1NC(=O)Nc1ccc(F)cc1` [Compound 19], for which the EC50 in experiment [1] (setting [8]) was determined as 20 µM. Further, in experiment [2], the IC50 came to 18 µM.
On the same counts, the results for `Cn1nc(C(N)=O)c(-c2ccc(F)cc2)c1NC(=O)Nc1ccc(F)cc1` [Compound 20] are over 50 µM and 14 µM.
For `Cn1nc(C(F)(F)F)c(Br)c1NC(=O)Nc1ccc(F)cc1` [Compound 11, 1-[4-bromo-2-methyl-5-(trifluoromethyl)pyrazol-3-yl]-3-(4-fluorophenyl)urea], the EC50 in experiment [1] (setting [8]) was 16 µM. In experiment [2], the “PfProRS activity in words” value was “inactive” and the IC50 was over 50 µM.
As for `Cn1nc(C(F)(F)F)c(-c2ccccc2CCO)c1NC(=O)Nc1ccc(F)cc1` [Compound 14], in experiment [2], the IC50 is over 50 µM.
Turning to `Cn1nc(CCN2CCOCC2)c(-c2ccc(F)cc2)c1NC(=O)Nc1ccc(F)cc1` [Compound 26], the EC50 in experiment [1] (setting [8]) is 10 µM. Also, in experiment [2], the IC50 turned out to be 3 µM.
On to `COc1ccc(NC(=O)Nc2c(-c3ccc(F)cc3)c(C(F)(F)F)nn2C)cc1` [Compound 5], for which the EC50 in experiment [1] (setting [8]) was over 50 µM. Further, the IC50 in experiment [2] was over 50 µM.
On to `Cn1nc(CCC(N)=O)c(-c2ccc(F)cc2)c1NC(=O)Nc1ccc(F)cc1` [Compound 21], for which, in experiment [1] (setting [8]), the EC50 was over 50 µM. In addition, in experiment [2], the IC50 came to 8 µM.
As to `Cn1nc(C(F)(F)F)c(-c2cccc(CCO)c2)c1NC(=O)Nc1ccc(F)cc1` [Compound 15], in experiment [1] (setting [8]), the EC50 turned out to be 4 µM. The IC50 in experiment [2] was 13 µM.
For the compound `Cn1nc(C(F)(F)F)cc1NC(=O)Nc1ccc(F)cc1` [Compound 10, 1-(4-fluorophenyl)-3-(1-methyl-3-(trifluoromethyl)-1H-pyrazol-5-yl)urea], the EC50 in experiment [1] (setting [8]) was found to be 46 µM. Besides, in experiment [2], the “PfProRS activity in words” value is “inactive” and the IC50 was over 50 µM.
For the compound `OC(c1cc(C(F)(F)F)nc2c(C(F)(F)F)cccc12)C1CCCCN1` (centres unmarked) [Mefloquine, reference compound], in experiment [1] (P. falciparum 3D7, read-out: potency range (drug control)), the EC50 was 0.03 to 0.06 µM.
Regarding `CCCc1nc2c(C)cc(-c3nc4ccccc4n3C)cc2n1Cc1ccc(-c2ccccc2C(=O)O)cc1` [telmisartan], the inhibition at 0.73 µM in experiment [4] is -0.36%; in experiment [5] (at 0.73 μM) it was 0.44%. Besides, the inhibition at 1.46 µM in experiment [4] is -0.06%; in experiment [5] (at 1.46 μM (750 μM series)) it was 0.05%. For the same compound, the inhibition at 2.93 µM in experiment [4] was -0.17%; in experiment [5] (at 2.93 μM), 0.04%. Besides, the inhibition at 5.86 µM in experiment [4] was -0.08%; in experiment [5] (at 5.86 μM), -0.1%. Further, the inhibition at 11.72 µM in experiment [4] stood at 2.19%; in experiment [5] (at 11.72 μM), 0.01%. Moreover, the inhibition at 23.44 µM was 3.94% in experiment [4] and 0% in experiment [5] (at 23.44 μM). For the same compound, the inhibition at 46.88 µM in experiment [4] is 13.4%; in experiment [5] (at 46.88 μM), -0.02%. Moreover, the inhibition at 93.75 µM came out at 48.8% in experiment [4] and 0.37% in experiment [5] (at 93.75 μM). The values for the inhibition at 187.5 µM in experiment [4] and in experiment [5] (at 187.50 μM) were 80.8% and 4.23%, respectively. Moreover, the inhibition at 375 µM in experiment [4] was found to be 15.5%; in experiment [5] (at 375 μM), 0.25%. The figures for the inhibition at 750 µM in experiment [4] and in experiment [5] (at 750 μM) were 11.8% and 0.58%, respectively.
On to `Cn1nc(C(F)(F)F)c(-c2cccc(C(F)(F)F)c2)c1NC(=O)Nc1ccc(F)cc1` [Compound 17], for which the EC50 in experiment [1] (setting [8]) came to 0.9 µM. Besides, the IC50 in experiment [2] was over 50 µM.
The corresponding values for `Cn1ncc(-c2ccc(F)cc2)c1NC(=O)Nc1ccc(F)cc1` [Compound 18] are 27 µM and over 50 µM.
As for `Cn1nc(CCC#N)c(-c2ccc(F)cc2)c1NC(=O)Nc1ccc(F)cc1` [Compound 24], the EC50 in experiment [1] (setting [8]) was 6 µM. The IC50 in experiment [2] is 9 µM.
On the same counts, the results for `Cn1nc(CC#N)c(-c2ccc(F)cc2)c1NC(=O)Nc1ccc(F)cc1` [Compound 23] are 4 µM and 6 µM.
With `C[C@H]1Cc2c([nH]c3cc(Cl)c(F)cc23)[C@@]2(N1)C(=O)Nc1ccc(Cl)cc12` [KAE609, reference compound], the “effect on parasite cytosolic pH (pHi)” value in experiment [6] is listed as “caused an increase in pHi”.
Consider `Cn1nc(C(F)(F)F)c(-c2ccc(F)cc2)c1NC(=O)Nc1ccnc(N2CCOCC2)c1` [Compound 6], for which, in experiment [1] (setting [8]), the EC50 was over 50 µM. Further, the IC50 in experiment [2] is over 50 µM.
For `CC(C)(C)OC(=O)N1CCC[C@@H](O)[C@@H]1CC(=O)Cn1cnc2cc(Br)c(Cl)cc2c1=O` [N-Boc-halofuginone], in experiment [7] (Hill slope = 1, Figure S2, read-out: IC50, [3H]-L-proline aminoacylation incorporation assay), the IC50 is over 3 µM. The compound also came in with an inhibition of aminoacylation in experiment [7] (at the highest concentrations tested) of under 20%.
For the compound `Cn1nc(C(F)(F)F)c(-c2cccc(CNS(C)(=O)=O)c2)c1NC(=O)Nc1ccc(F)cc1` [Compound 16], the EC50 in experiment [1] (setting [8]) was 10 µM. Further, in experiment [2], the “PfProRS activity in words” value is “inactive” and the IC50 was over 50 µM.
On to `Cn1nc(C(F)(F)F)c(-c2ccc(F)cc2)c1N` [Compound 2], for which the EC50 in experiment [1] (setting [8]) is 5 µM. Further, in experiment [2], the “PfProRS activity in words” value is “inactive” and the IC50 was over 50 µM.
In the case of `O=C(Nc1ccc(F)cc1)Nc1c(-c2ccc(F)cc2)c(C(F)(F)F)nn1CCO` [Compound 8], the EC50 in experiment [1] (setting [8]) was over 50 µM. The IC50 in experiment [2] is over 50 µM.

One may read the Km as the concentration of substrate that gives half-maximal velocity. What is called inhibition is the drop in the measured response relative to a control, in per cent.
